Test system: colonic bacteria

Compound: CC1=C(CC(=O)O)c2cc(F)ccc2C1=Cc1ccc(S(C)(=O)=O)cc1 [Example 10, α-(1-ρ-Methylsulfonylbenzylidene)-2-Methyl-5-Fluoro-3-Indenyl-Acetic Acid]
- conversion of the sulfonyl compound in human fecal material: converted to an unknown derivative

From patent US20020107248A1, “Method for treating patients with neoplasia by administering substituted sulfonyl indenyl acetic and propionic acids and esters thereof” (priority 1991, published 2002)
